Experimental data from PubChem BioAssay (NCI).
Values joined by “and” are separate entries in the source; they are usually repeats but may differ in a detail not shown here. Equal values may be shown once.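 All cell lines were grown in 96-well plates and treated with compound for 48 hours. At the GI50, growth is halved. At the TGI there is no net growth.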

Tested on: MDA-MB-468 breast
Test: DTP human tumour cell line panel, 48 h

Row | SMILES | GI50 | TGI
1 | COc1cnc2c(c1)C(=O)c1c-2n(CCCN2CCNCC2)c(=O)c2cc(F)ccc12 | 205 nM | 784 nM
2 | Cc1n[nH]c(C)c1-c1c(C)n[nH]c1C | 1960 nM | 4750 nM
3 | Nc1nc(N)c2nc(CNc3ccc(C(=O)NC(CCC(=O)O)C(=O)O)cc3)cnc2n1 (stereo not given) | 35.7 nM and < 10 nM | > 100000 nM
4 | COc1cccc(-c2cc(-c3ccc(Nc4nc(Nc5ccc(Cl)cc5)nc(Nc5ccc(Cl)cc5)n4)cc3)nc(N)c2C#N)c1 | 2180 nM | 4790 nM
5 | CCOc1ccc(-c2nc3ccc(-c4nc5ccc(N6CCN(C)CC6)cc5[nH]4)cc3[nH]2)cc1OCC | 1580 nM | 4600 nM
6 | COc1ccc(-c2cc(-c3ccc(Cl)cc3)c(C#N)c(=O)n2CCCCCC(=O)Nc2ccccc2N)cc1 | 3240 nM | 31500 nM
7 | Cc1ccccc1C1N=C2Oc3ccccc3C=C2C(=O)N1 (stereo not given) | 524 nM | > 100000 nM
8 | CNC(=S)N/N=C/CSC/C=N/NC(=S)NC | > 100000 nM | > 100000 nM
9 | CCCN1CCCC(c2ccc(Nc3nc(Nc4cc(F)ccc4C(N)=O)c4cc[nH]c4n3)c(OC)c2)C1 (stereo not given) | 3250 nM | 6730 nM
10 | CC1(C)CCC(c2ccc(Cl)cc2)=C(CN2CCN(c3ccc(C(=O)NS(=O)(=O)c4ccc(N[C@H](CCN5CCOCC5)CSc5ccccc5)c(S(=O)(=O)C(F)(F)F)c4)cc3)CC2)C1 | 770 nM | 2640 nM
11 | CN1CCN(c2ccc(Nc3nc(NCCCNS(=O)(=O)c4cccc(F)c4)c4sccc4n3)cc2)CC1 | 2590 nM | 10900 nM
12 | N#Cc1cccc(/C(N)=N/C(N)=N/c2nc3ccccc3s2)c1 | 415 nM | 
13 | Fc1cnccc1-c1nc2ccc3[nH]ncc3c2c2c1CCCC2 | 1050 nM | 7860 nM
14 | CC(=O)Nc1ccc(S(=O)(=O)N2C(=O)CCC2C(=O)Nc2ccccc2)cc1 (stereo not given) | 1760 nM | 19200 nM
15 | CN(C)CCCn1c2c(c3ccc(N4CCNCC4)cc3c1=O)C(=O)c1ccccc1-2 | 949 nM | 2410 nM
16 | C=C1C(=O)O[C@H]2[C@H]1CC/C(COC(=O)NCc1ccc(Cn3c(=O)sn(CCCI)c3=O)cc1)=C\CC[C@@]1(C)O[C@@H]21 | 1540 nM | 3480 nM
17 | NC1=Nc2cc(OCCCCN3Cc4ccccc4C3)c(OCC3CC3)cc2C12CCCC2 | 1250 nM | 2750 nM
18 | CCc1ccc2cc3c(ccc4ccccc43)c3c2c1CC3 | 481 nM | > 100000 nM
19 | COc1cc(C(=O)N[C@@H]2CCCN(C)C2)ccc1Nc1ncc2c(n1)N(C1CCCC1)CC(C)(C)C(=O)N2C | 17.7 nM | 3390 nM
20 | CC(C)c1c(C(=O)Nc2ccccc2)c(-c2ccccc2)c(-c2ccc(F)cc2)n1CC[C@@H](O)C[C@@H](O)CC(=O)O | 9320 nM | 68900 nM
21 | C=CN(C(=O)N1CCN(c2cc3c(cc2F)c(=O)c(C(=O)O)cn3C2CC2)CC1)c1nc(-c2ccc(C)cc2)cs1 | 2860 nM | 9140 nM
22 | Cc1ccc(CNc2ccc(Cl)cc2NCc2ccc(C)c(O)c2)cc1O | 8050 nM | 16800 nM
23 | OC1(c2ccccc2)c2ccccc2N(c2ccccc2)c2ccc(Cl)cc21 (stereo not given) | 86.4 nM | 317 nM
24 | CCn1nc(C#Cc2c(C)ccc3c(Nc4ccc(Cl)cc4)nccc23)c2c(N)ncnc21 | 2250 nM | 10500 nM
25 | CC[C@@]12CC(C(=O)OC)=C3Nc4ccccc4[C@@]34CCN(C[C@H]3O[C@H]31)[C@@H]24 | 21500 nM | 98700 nM
26 | COc1ncc(-c2ccc3nc(N)n(-c4ccccc4C(F)(F)F)c(=O)c3c2)cc1S(=O)(=O)Nc1ccc(F)cc1F | 853 nM | 2920 nM

Row | SMILES | GI50 | TGI
27 | CC1(C)CC[C@]2(C(=O)O)CC[C@]3(C)C(=CC[C@@H]4[C@@]5(C)C/C(=C/c6cccnc6)[C@H](O)C(C)(C)[C@@H]5CC[C@]43C)[C@@H]2C1 | 17100 nM | 88300 nM
28 | FC(F)(F)c1ccc(-c2cnc(-c3nn[nH]n3)nc2NC2CCCCCC2)cc1 | > 10000 nM | > 10000 nM
29 | Cc1cc(C)c(CNC(=O)c2cc(Cl)c3c(c2C)O[C@@](C)(C2CCC(N(C)C)CC2)O3)c(=O)[nH]1 (stereo not given in full) | 24100 nM | > 100000 nM
30 | Nc1nc(-c2ccccn2)c(-c2ccc3ncccc3n2)s1 | > 25000 nM | > 25000 nM
31 | CCN(CC)c1ccc(C=C2C(=O)NC(=S)NC2=O)cc1 | 2370 nM | 5560 nM
32 | COc1cc2nc(NC3CCC3)nc(NC3CCN(C(C)C)CC3)c2cc1OC | 1370 nM | 2850 nM
33 | CN1CC[C@H](N(C)C(=O)N2CC(c3cc(F)ccc3F)=C[C@@]2(CO)c2ccccc2)[C@H](F)C1 | 5.14 nM | 
34 | O=C1Nc2ccc(I)cc2/C1=C/c1cc(Br)c(O)c(Br)c1 | > 18900 nM and 15900 nM | > 25000 nM and 57500 nM
35 | CCCCCCCCCCCCNC(=O)N[C@H](C(=O)N[C@H]1/C=C/OCCNC(=O)/C=C/[C@H](C(C)C)NC1=O)C(C)C | 898 nM | 6740 nM
36 | O=c1c2cc(F)ccc2sc2c(NCCCNCCO)nc3ccc(F)cc3c12 | 1780 nM | 3470 nM
37 | O=c1[nH]c2c(ccc3cnccc32)c2c1CCC2 | 206 nM | 549 nM
38 | C=C(C)[C@@H]1CC[C@]2(C(=O)OC)CC[C@]3(C)[C@H](CC[C@@H]4[C@@]5(C)CC/C(=N\OCCC(=NCCC#N)NOCCC#N)C(C)(C)[C@@H]5CC[C@]43C)[C@@H]12 | 2020 nM | > 50000 nM
39 | CC(C)OC(=O)OCOP(=O)(OCOC(=O)OC(C)C)C1CCCN(O)C1=O (stereo not given) | 1610 nM | > 100000 nM
40 | CC1(C)N=C(N)N=C(N)N1c1cccc(CC(=O)Nc2ccccc2)c1 | 22100 nM | > 100000 nM
41 | N/C(=N\O)c1cn(C2OC(CO)C(O)C2O)c2ncnc(N)c12 (stereo not given) | 126 nM | 453 nM
42 | Nc1ncnc2c1ncn2C1SC(CO)C(O)C1O (stereo not given) | 19400 nM | 58000 nM
43 | CN(C)c1ccc(-c2cc(-c3cccc(NS(C)(=O)=O)c3)nc(N)c2C#N)cc1 | 268 nM | 1170 nM
44 | COC(=O)[C@@H](C)C[C@H](Cc1ccccc1)NC(=O)c1nc([C@@H](C[C@H](C(C)C)N(C)C(=O)[C@@H](NC(=O)[C@H]2CC(=O)CCN2C)C(C)C)OC(C)=O)sc1C(C)C | 25.8 nM | 129 nM
45 | N=C(N)c1ccc(-c2ccc(-c3cccs3)s2)cc1F | 46.4 nM | 256 nM
46 | CC/C(=C\c1ccc(N(C)C)cc1)c1ccncc1 | 2270 nM | 7320 nM
47 | COc1cc(-c2nn(-c3cccc(NC(=O)NCCNC(=O)c4ccccc4)c3)cc2-c2ccncc2)ccc1Cl | 3140 nM | > 100000 nM
48 | Nc1c2ccccc2nc2ccccc12 | 1060 nM and 1150 nM | 2850 nM and 2880 nM
49 | N#CSc1c[nH]c2cccc(/C=C/C(=O)/C=C(O)/C=C/c3cccc4[nH]cc(SC#N)c34)c12 | 496 nM | 1220 nM
50 | COc1cc(F)c(F)c(F)c1C(=O)c1cnc(NC2CCN(S(C)(=O)=O)CC2)nc1N | 2300 nM | 7270 nM
51 | O=c1[nH]c(-c2ccncc2)nc2sc3c(c12)CCCCCC3 | > 100000 nM | > 100000 nM
